{"source": "patent US20130281523A1", "about": "“LOW DOSE CANNABINOID MEDICAMENTS” (priority 2010, published 2013)", "origin": "cited, not measured here", "test_system": "rat model of sleep apnea", "conditions": "10 mg/kg intraperitoneal injection", "data": [{"molecule": "CCCCCc1cc(O)c2c(c1)OC(C)(C)[C@@H]1CCC(C)=C[C@@H]21", "note": "[Dronabinol, Delta-9-tetrahydrocannabinol]", "values": [{"measurement": "Breathing cessation during non-REM (NREM) sleep", "value": "reduced breathing cessation"}]}]}
